Experiments:
[1] = tested on: HUVEC (human umbilical vein endothelial cells); test: Proliferation and growth of normal cells, HUVEC; format: cell-based; conditions: data not shown
rice pol λ = target: T1, rice pol λ (Oryza sativa subsp. japonica, UniProt Q67VC8); test: DNA polymerase assay, plant pol λ; format: biochemical, rice (Oryza sativa L. cv. Nipponbare); conditions: 100 μM
T1 construct: His; made in house
Source text: (§1) Pol α was purified from calf thymus by immuno-affinity column chromatography, as described by Tamai et al.. Recombinant rat pol β was purified from E. coli JMpβ5, as described by Date et al.. The human pol γ catalytic gene was cloned into pFastBac. Histidine-tagged enzyme was expressed using the BAC-TO-BAC HT Baculovirus Expression System according to the supplier’s manual (Life Technologies, MD, USA) and purified using ProBoundresin (Invitrogen Japan, Tokyo, Japan). Human pols δ and ɛ were purified by nuclear fractionation of human peripheral blood cancer cells (Molt-4) using the second subunit of pols δ and ɛ-conjugated affinity column chromatography, respectively. A truncated form of human pol η (residues 1–511) tagged with His6 at its C-terminal was expressed in E. coli cells and purified as described by Kusumoto et al.. A recombinant mouse pol ι tagged with His6 at its C-terminal was expressed and purified by Ni-NTA column chromatography as described elsewhere (Masutani et al., in preparation). […]
(§2) The compounds were dissolved in distilled dimethyl sulfoxide (DMSO) at various concentrations and sonicated for 30 sec. […] Activity without the inhibitor was considered 100%, and the remaining activity at each concentration of the inhibitor was determined relative to this value. […]

human telomerase = human telomerase (Homo sapiens, UniProt O14746); test: Telomerase assay; format: biochemical; conditions: 100 μM
Method: (§3) The activities of calf primase of pol α, human telomerase, T7 RNA polymerase, mouse IMP dehydrogenase, human DNA topoisomerases I and II, T4 polynucleotide kinase and bovine DNase I were measured in standard assays according to the manufacturer’s specifications, as described by Tamiya-Koizumi et al., Oda et al., Nakayama et al., Mizushina et al., Ishimaru et al., Soltis et al. and Lu et al., respectively.

fruit fly pol α = target: T2, fruit fly pol α (Drosophila melanogaster, UniProt P26019); test: DNA polymerase assay, insect pol α; format: biochemical; conditions: 100 μM
T2 construct: purified from early embryos of Drosophila melanogaster; from tissue; host or cells: early embryos of Drosophila melanogaster
Source text: as §1, §2

mouse pol ι = target: T3, mouse pol ι (Mus musculus, UniProt Q6R3M4); test: DNA polymerase assay, pol ι; format: biochemical
T3 construct: His6 (C); made in house
Source text: as §1, §2

rat pol β = target: T4, rat pol β (Rattus norvegicus, UniProt P06766); test: DNA polymerase assay, pol β; format: biochemical; conditions: 100 μM
T4 construct: made in house; host or cells: E. coli JMpβ5
Source text: as §1, §2

bovine DNase I = target: T5, bovine DNase I (Bos taurus, UniProt P00639); test: DNase I assay; format: biochemical; conditions: 100 μM
T5 construct: Calf thymus TdT and bovine pancreas DNase I were obtained from Stratagene Cloning Systems; purchased Stratagene Cloning Systems (La Jolla, CA, USA); host or cells: bovine pancreas (tissue)
Source text: as §1, with “al..” for “al.. A recombinant mouse pol ι tagged with His6 at its C-terminal was expressed and purified by Ni-NTA column chromatography as described elsewhere (Masutani et al., in preparation).”
as §3

human topoisomerase II = target: T6, human topoisomerase II (Homo sapiens, UniProt P11388); test: DNA topoisomerase II assay; format: biochemical; conditions: 100 μM
T6 construct: Purified human placenta DNA topoisomerases I and II were purchased from TopoGen, Inc; purchased TopoGen, Inc. (Columbus, OH, USA); host or cells: human placenta (tissue-purified)
Source text: as §1, with “al..” for “al.. A recombinant mouse pol ι tagged with His6 at its C-terminal was expressed and purified by Ni-NTA column chromatography as described elsewhere (Masutani et al., in preparation).”
as §3

T3 sequence (Q6R3M4 whole entry): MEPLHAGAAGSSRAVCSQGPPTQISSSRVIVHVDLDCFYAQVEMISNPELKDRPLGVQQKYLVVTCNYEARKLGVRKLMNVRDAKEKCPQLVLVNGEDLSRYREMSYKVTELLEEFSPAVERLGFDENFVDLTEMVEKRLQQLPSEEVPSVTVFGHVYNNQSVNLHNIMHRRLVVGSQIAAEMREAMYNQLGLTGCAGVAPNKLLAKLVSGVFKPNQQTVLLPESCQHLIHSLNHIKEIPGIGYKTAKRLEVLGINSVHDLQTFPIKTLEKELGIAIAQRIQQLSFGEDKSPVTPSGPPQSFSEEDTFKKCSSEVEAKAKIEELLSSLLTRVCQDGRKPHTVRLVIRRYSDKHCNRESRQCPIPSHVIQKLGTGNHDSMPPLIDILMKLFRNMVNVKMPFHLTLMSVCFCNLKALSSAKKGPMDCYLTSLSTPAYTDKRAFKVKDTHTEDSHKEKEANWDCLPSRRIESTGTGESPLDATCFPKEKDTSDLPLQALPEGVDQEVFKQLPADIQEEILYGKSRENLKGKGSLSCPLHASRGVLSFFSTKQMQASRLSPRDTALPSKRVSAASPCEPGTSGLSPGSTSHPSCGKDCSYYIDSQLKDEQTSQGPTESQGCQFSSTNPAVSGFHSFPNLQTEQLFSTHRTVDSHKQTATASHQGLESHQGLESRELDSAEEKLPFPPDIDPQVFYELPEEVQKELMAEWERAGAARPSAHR
Chain of human telomerase (O14746 whole entry): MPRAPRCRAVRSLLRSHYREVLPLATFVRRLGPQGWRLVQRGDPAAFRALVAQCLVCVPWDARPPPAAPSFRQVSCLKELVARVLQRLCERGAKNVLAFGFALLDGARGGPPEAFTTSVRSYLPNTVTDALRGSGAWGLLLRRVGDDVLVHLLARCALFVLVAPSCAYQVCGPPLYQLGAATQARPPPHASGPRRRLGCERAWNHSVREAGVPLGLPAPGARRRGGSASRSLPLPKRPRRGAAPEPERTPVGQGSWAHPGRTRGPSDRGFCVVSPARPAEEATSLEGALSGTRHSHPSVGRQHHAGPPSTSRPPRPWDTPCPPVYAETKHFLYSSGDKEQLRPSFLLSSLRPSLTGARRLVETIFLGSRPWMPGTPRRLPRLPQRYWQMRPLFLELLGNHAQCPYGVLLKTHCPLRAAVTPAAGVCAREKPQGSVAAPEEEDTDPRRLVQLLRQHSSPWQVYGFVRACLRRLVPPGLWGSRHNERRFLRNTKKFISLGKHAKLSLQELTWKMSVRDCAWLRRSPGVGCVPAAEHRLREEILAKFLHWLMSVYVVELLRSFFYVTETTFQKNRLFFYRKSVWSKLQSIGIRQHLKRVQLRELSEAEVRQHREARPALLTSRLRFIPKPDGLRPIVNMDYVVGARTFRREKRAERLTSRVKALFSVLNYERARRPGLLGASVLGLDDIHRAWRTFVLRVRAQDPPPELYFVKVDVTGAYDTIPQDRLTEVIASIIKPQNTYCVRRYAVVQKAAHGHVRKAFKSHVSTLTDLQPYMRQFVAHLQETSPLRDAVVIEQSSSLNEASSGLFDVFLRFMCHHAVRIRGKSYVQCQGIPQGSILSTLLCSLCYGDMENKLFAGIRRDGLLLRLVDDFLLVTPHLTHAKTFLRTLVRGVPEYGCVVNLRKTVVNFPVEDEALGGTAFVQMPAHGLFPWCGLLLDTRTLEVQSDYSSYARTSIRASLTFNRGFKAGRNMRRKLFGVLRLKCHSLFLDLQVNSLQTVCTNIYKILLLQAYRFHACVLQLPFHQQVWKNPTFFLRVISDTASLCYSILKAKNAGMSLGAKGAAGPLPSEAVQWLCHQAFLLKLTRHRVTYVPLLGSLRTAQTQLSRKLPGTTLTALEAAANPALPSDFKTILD
T5 sequence (P00639 23-282): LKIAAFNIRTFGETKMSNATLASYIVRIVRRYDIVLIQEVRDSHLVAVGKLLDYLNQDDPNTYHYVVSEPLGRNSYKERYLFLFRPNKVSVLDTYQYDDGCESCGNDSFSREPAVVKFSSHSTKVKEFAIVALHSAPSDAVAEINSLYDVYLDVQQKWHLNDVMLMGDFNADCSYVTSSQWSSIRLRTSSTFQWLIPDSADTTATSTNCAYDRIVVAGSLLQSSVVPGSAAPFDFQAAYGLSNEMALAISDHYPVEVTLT
T1 sequence (Q67VC8 whole entry): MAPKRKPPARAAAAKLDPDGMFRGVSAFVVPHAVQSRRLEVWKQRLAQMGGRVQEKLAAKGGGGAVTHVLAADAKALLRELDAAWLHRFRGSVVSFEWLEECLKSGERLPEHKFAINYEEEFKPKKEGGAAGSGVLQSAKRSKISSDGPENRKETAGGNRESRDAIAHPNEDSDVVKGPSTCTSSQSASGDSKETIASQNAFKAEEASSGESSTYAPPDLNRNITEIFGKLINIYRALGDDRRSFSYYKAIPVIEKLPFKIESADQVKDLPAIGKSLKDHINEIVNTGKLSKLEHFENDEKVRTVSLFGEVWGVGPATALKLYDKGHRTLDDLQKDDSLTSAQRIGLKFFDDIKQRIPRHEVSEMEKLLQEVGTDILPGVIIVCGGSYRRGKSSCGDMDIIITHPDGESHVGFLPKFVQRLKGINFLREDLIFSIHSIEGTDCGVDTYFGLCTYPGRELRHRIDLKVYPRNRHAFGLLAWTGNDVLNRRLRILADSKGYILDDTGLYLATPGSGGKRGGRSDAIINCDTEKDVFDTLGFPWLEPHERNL
T6 sequence (P11388 whole entry): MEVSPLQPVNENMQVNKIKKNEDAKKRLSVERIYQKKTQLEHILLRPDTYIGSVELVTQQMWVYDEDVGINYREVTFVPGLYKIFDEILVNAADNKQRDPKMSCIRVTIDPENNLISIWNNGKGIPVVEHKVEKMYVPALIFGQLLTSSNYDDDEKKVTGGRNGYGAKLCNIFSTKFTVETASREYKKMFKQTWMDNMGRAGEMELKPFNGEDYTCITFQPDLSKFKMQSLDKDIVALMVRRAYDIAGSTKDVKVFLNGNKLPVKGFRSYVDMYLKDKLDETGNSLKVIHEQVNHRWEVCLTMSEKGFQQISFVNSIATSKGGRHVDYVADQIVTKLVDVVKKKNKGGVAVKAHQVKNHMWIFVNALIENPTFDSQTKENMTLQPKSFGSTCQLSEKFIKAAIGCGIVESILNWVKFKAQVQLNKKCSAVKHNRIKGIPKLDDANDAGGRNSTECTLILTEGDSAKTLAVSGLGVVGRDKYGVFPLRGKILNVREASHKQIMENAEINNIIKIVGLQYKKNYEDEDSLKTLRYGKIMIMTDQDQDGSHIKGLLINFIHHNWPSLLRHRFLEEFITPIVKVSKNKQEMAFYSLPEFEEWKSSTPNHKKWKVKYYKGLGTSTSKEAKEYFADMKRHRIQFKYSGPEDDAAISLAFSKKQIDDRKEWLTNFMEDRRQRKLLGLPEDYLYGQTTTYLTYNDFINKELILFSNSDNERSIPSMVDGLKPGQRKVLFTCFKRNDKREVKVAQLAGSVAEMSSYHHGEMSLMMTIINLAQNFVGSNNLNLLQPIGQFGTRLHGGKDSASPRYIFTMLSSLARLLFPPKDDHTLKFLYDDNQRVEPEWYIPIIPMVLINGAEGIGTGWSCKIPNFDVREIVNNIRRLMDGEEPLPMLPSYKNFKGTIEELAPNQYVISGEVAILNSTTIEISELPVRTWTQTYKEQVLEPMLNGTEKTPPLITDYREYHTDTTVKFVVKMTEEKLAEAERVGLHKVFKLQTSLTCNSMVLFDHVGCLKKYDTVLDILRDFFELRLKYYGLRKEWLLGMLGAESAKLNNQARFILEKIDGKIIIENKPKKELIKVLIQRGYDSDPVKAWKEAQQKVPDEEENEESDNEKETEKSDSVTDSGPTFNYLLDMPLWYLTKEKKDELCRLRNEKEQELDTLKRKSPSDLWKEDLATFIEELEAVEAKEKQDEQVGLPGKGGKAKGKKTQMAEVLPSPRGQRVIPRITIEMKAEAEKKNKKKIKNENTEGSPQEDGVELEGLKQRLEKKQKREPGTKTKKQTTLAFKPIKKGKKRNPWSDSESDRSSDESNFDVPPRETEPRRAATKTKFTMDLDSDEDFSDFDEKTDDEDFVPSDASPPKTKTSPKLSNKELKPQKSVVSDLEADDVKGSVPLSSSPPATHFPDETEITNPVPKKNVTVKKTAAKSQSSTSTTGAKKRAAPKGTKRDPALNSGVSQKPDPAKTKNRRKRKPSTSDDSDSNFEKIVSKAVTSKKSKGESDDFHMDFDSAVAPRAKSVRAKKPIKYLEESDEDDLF

Question: `C/C=C/c1occ(C(=O)c2c(OC)cc(OC)cc2C(=O)OC)c(=O)c1OC` [compound 1, 3-O-methylfunicone] was tested. Which “effect on cell proliferation and growth” value [1] did it give?
Answer: did not influence

Question: What about the “effect on rice pol λ activity” value (rice pol λ) of the same compound?
Answer: no effect

Question: And the “effect on human telomerase activity” value (human telomerase)?
Answer: did not influence

Question: What about the “effect on fruit fly pol α activity” value (fruit fly pol α) of the same compound?
Answer: hardly influenced

Question: And the “effect on pol ι activity” value (mouse pol ι; 100 μM)?
Answer: selectively inhibit

Question: And the IC50 (mouse pol ι; poly(dA)/oligo(dT)18 and dTTP, 0.05 units enzyme, read-out: 50% inhibition of pol ι (IC50))?
Answer: 34.3 µM

Question: What about the “effect on pol β activity” value (rat pol β) of the same compound?
Answer: hardly influenced

Question: What about the “effect on bovine DNase I activity” value (bovine DNase I) of the same compound?
Answer: did not influence

Question: And the “effect on human topoisomerase II activity” value (human topoisomerase II)?
Answer: did not influence

From publication PMC2810227, “3-O-Methylfunicone, a Selective Inhibitor of Mammalian Y-Family DNA Polymerases from an Australian Sea Salt Fungal Strain” (Marine Drugs, 2009)
